Reference: US10259810B2, “N-sulfonylated pyrazolo[3,4-b]pyridin-6-carboxamides and method of use” (AbbVie S.à.r.l., priority 2015, dated 2019)
Where two headings read alike, the source gives them in different places.

Key:
Format in all cases: cell-based
[1] = target: T1, ΔF508-CFTR (Homo sapiens, UniProt P13569, DEL508-508); assay: CFTR cell surface levels using HRP-tagged ΔF508-CFTR expressing CFBE cells, intrinsic corrector capacity; design: % Activation: concentration or dose not given beside the values
T1 construct: host or cells: CFBE41o-, doxycycline-inducible
Method in brief: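 Surface ΔF508-CFTR was measured as HRP chemiluminescence from an extracellular-loop-4 tag, expressed as percent activity between DMSO and a […] corrector control.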

[2] = target: T1, ΔF508-CFTR; assay: CFTR cell surface levels using HRP-tagged ΔF508-CFTR expressing CFBE cells, in the presence of a co-corrector
Method in brief: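 Chemiluminescent read-out of surface HRP (15 min, dark) after PBS washes. Activity is normalized as 100×(sample−DMSO)/(3 μM co-corrector alone−DMSO).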

[3] = target: T2, CFTR ΔF508 (Homo sapiens, UniProt P13569, DEL508-508); assay: Chronic TECC assay, primary bronchial epithelial cells of CF patients homozygous for CFTR ΔF508 (corrector, co-corrector and potentiator); settings: for % Activity at 3 μM (AUC**): test compound at 3 μM; for % Activity at 1 μM (AUC**): test compound at 1 μM
T2 construct: bronchial epithelial cells isolated from CF patients homozygous for the CFTR ΔF508 mutation; McGill University; Asterand; University of North Carolina hAEC-CF; host or cells: primary human bronchial epithelial cells from CF patients homozygous for ΔF508, differentiated at air-liquid interface
Method in brief: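 Primary bronchial epithelial cells from ΔF508-homozygous CF patients on collagen IV-coated Transwells were chronically treated with test compound plus corrector and potentiator, which were re-added before recording. Ieq was derived from PD and Rt in NaCl-Ringer, pH 7.4, at 37° C, with apical amiloride and bilateral forskolin, recorded every 2 min over 20 min. Ieq increase was normalized to controls, and EC50 was taken from per-well concentrations.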

[4] = HRP-tagged ΔF508-CFTR expressing CFBE41o- cells, compound alone (intrinsic corrector capacity), 20 hours at 33° C.
[5] = HRP-tagged ΔF508-CFTR expressing CFBE41o- cells, compound alone (intrinsic corrector capacity), 20 hours at 33° C., read-out: EC50
[6] = HRP-tagged ΔF508-CFTR CFBE cells, in the presence of 3 μM co-corrector
[7] = HRP-tagged ΔF508-CFTR CFBE cells, in the presence of 3 μM co-corrector, read-out: EC50
[8] = chronic TECC, AUC = full area under the curve upon forskolin stimulation
[9] = chronic TECC, AUC = full area under the curve upon forskolin stimulation, read-out: EC50 (nM) (AUC**)

T2 sequence (P13569 with tags, fused parts or gaps DEL508-508): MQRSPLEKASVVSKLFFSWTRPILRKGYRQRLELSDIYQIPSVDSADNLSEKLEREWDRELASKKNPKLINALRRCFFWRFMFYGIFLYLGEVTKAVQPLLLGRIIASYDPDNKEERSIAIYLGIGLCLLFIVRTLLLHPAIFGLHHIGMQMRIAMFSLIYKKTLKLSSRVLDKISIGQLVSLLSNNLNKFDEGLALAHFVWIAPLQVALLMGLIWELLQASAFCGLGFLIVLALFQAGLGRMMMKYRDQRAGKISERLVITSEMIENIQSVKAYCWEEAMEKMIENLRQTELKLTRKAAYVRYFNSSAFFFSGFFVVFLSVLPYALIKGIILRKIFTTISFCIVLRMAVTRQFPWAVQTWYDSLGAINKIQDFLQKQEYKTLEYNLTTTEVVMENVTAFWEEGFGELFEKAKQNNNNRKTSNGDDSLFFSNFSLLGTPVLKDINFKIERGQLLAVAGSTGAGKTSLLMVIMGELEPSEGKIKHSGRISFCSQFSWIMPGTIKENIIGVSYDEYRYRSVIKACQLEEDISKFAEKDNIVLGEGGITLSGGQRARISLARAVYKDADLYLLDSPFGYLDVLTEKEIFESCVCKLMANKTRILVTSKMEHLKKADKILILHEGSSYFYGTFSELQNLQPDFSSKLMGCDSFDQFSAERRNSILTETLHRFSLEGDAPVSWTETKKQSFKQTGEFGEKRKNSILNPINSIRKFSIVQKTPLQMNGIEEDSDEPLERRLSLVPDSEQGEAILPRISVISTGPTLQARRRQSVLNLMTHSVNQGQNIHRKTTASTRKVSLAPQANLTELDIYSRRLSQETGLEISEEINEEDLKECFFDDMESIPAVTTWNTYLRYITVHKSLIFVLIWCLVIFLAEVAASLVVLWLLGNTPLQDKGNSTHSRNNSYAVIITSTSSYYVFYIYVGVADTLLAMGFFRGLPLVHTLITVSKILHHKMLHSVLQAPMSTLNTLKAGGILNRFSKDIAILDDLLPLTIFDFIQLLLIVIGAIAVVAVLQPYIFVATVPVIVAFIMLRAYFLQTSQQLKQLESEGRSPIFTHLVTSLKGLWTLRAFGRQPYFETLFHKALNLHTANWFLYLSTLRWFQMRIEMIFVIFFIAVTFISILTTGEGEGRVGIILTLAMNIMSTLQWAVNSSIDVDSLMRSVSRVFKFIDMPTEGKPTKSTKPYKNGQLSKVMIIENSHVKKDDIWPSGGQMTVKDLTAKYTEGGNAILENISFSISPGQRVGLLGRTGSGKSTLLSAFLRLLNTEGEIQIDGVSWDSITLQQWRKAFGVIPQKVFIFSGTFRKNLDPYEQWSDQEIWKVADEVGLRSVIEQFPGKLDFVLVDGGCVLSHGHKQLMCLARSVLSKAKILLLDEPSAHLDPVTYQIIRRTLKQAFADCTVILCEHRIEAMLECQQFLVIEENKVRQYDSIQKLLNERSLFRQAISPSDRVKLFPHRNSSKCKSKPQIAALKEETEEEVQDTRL
T1 sequence (P13569 with tags, fused parts or gaps DEL508-508): as above

For `CC(C)Oc1nccc(-n2nc(C3CCC3)c3c(N4CCC(N5CCOCC5)CC4)cc(C(=O)NS(=O)(=O)N(C)C)nc32)n1` [Compound 621, 3-cyclobutyl-N-(dimethylsulfamoyl)-4-[4-(morpholin-4-yl)piperidin-1-yl]-1-{2-[(propan-2-yl)oxy]pyrimidin-4-yl}-1H-pyrazolo[3,4-b]pyridine-6-carboxamide], the “% Activation” value [1, 4] was 160.45%, the EC50 [1, 5] was 173 nM and the “% Activation” value [2, 6] was 348.55%. The EC50 [2, 7] was 77 nM and the “% Activity at 3 μM (AUC**)” value [3, 8] was 256.6667%.

`CN(C)S(=O)(=O)NC(=O)c1cc(N2CCC(N3CCCCC3)CC2)c2c(C3CCC3)nn(-c3ccc(F)cc3)c2n1` [Compound 472, 4-([1,4'-bipiperidin]-1'-yl)-3-cyclobutyl-N-(dimethylsulfamoyl)-1-(4-fluorophenyl)-1H-pyrazolo[3,4-b]pyridine-6-carboxamide] was tested, and the “% Activation” value [1, 4] was 210.57%, the EC50 [1, 5] was 681 nM and the “% Activation” value [2, 6] was 399.79%. For the same compound, the EC50 [2, 7] was 249 nM, the EC50 [3, 9] was 34.2 nM and the “% Activity at 1 μM (AUC**)” value [3, 8] was 181.0865%.

With `CS(=O)(=O)NC(=O)c1cc(N2CCC(N3CCCCC3)CC2)c2c(C3CCC3)nn(-c3ccccc3)c2n1` [Compound 365, 4-([1,4′-bipiperidin]-1′-yl)-3-cyclobutyl-N-(methanesulfonyl)-1-phenyl-1H-pyrazolo[3,4-b]pyridine-6-carboxamide] the EC50 [1] was 1670 nM, the “% Activation” value [1, 4] was 313% and the EC50 [2] was 271 nM. The “% Activation” value [2, 6] was 469.95% and the EC50 [3] was 200 nM.

In the case of `CC(C)Oc1nn(C2CCCCC2)c2nc(C(=O)NS(=O)(=O)N(C)C)cc(-c3ccc(CN4CCOCC4)cc3)c12` [Compound 406, 1-cyclohexyl-N-(dimethylsulfamoyl)-4-{4-[(morpholin-4-yl)methyl]phenyl}-3-[(propan-2-yl)oxy]-1H-pyrazolo[3,4-b]pyridine-6-carboxamide], the “% Activation” value [1, 4] is reported as 125.95%, the EC50 [1, 5] is reported as 241 nM and the “% Activation” value [2, 6] is reported as 311.35%. For the same compound, the EC50 [2, 7] was 182 nM and the “% Activity at 1 μM (AUC**)” value [3, 8] was 235%.

In the case of `CNS(=O)(=O)NC(=O)c1cc(N2CCC(N3CCC(OC)CC3)CC2)c2c(C3CCC3)nn(-c3ccc(F)cc3)c2n1` [Compound 629, 3-cyclobutyl-1-(4-fluorophenyl)-4-(4-methoxy[1,4'-bipiperidin]-1'-yl)-N-(methylsulfamoyl)-1H-pyrazolo[3,4-b]pyridine-6-carboxamide], the “% Activation” value [1, 4] is reported as 337.34%, the EC50 [1, 5] is reported as 517 nM and the “% Activation” value [2, 6] is reported as 546.75%. The EC50 [2, 7] was 267 nM, the EC50 [3, 9] was 6.85 nM and the “% Activity at 3 μM (AUC**)” value [3, 8] was 153.3918%.

With `CS(=O)(=O)NC(=O)c1cc(N2CCC(CO)CC2)c2c(C3CCC3)nn(-c3ccccc3)c2n1` [Compound 244, 3-cyclobutyl-4-[4-(hydroxymethyl)piperidin-1-yl]-N-(methanesulfonyl)-1-phenyl-1H-pyrazolo[3,4-b]pyridine-6-carboxamide] the “% Activation” value [1, 4] was 182.7%, the EC50 [1, 5] was 381 nM and the “% Activation” value [2, 6] was 290.6%. The EC50 [2, 7] was 413 nM and the “% Activity at 1 μM (AUC**)” value [3, 8] was 238.89%.

With `CN(C)S(=O)(=O)NC(=O)c1cc(N2CCC(N3CCC(F)(F)CC3)CC2)c2c(C3CCC3)nn(-c3ccc(F)cc3)c2n1` [Compound 526, 3-cyclobutyl-4-(4,4-difluoro[1,4'-bipiperidin]-1'-yl)-N-(dimethylsulfamoyl)-1-(4-fluorophenyl)-1H-pyrazolo[3,4-b]pyridine-6-carboxamide] the “% Activation” value [1, 4] was 269.23%, the EC50 [1, 5] was 153 nM and the “% Activation” value [2, 6] was 472.58%. The EC50 [2, 7] was 107 nM, the EC50 [3, 9] was 14.2 nM and the “% Activity at 1 μM (AUC**)” value [3, 8] was 400%.

For `CC(C)Oc1nn(C2CCCCC2)c2nc(C(=O)NS(C)(=O)=O)cc(-c3ccc(CN4CCOCC4)cc3)c12` [Compound 404, 1-cyclohexyl-N-(methanesulfonyl)-4-{4-[(morpholin-4-yl)methyl]phenyl}-3-[(propan-2-yl)oxy]-1H-pyrazolo[3,4-b]pyridine-6-carboxamide], the “% Activation” value [1, 4] was 181.2%, the EC50 [1, 5] was 186 nM and the “% Activation” value [2, 6] was 370%. For the same compound, the EC50 [2, 7] was 126 nM and the “% Activity at 1 μM (AUC**)” value [3, 8] was 433.3333%.

`CC(C)(O)C1CCN(c2cc(C(=O)NS(C)(=O)=O)nc3c2c(C2CCC2)nn3-c2ccccc2)CC1` [Compound 317, 3-cyclobutyl-4-[4-(2-hydroxypropan-2-yl)piperidin-1-yl]-N-(methanesulfonyl)-1-phenyl-1H-pyrazolo[3,4-b]pyridine-6-carboxamide] was tested, and the “% Activation” value [1, 4] was 269.6%, the EC50 [1, 5] was 93.5 nM and the “% Activation” value [2, 6] was 450.35%. The EC50 [2, 7] was 48.8 nM, the EC50 [3, 9] was 24 nM and the “% Activity at 1 μM (AUC**)” value [3, 8] was 311.08%.

For `COC(C)(C)C1CCN(c2cc(C(=O)NS(C)(=O)=O)nc3c2c(C(C)C)nn3-c2ccc(F)cc2)CC1` [Compound 221, 1-(4-fluorophenyl)-N-(methanesulfonyl)-4-[4-(2-methoxypropan-2-yl)piperidin-1-yl]-3-(propan-2-yl)-1H-pyrazolo[3,4-b]pyridine-6-carboxamide], the “% Activation” value [1, 4] was 322.15%, the EC50 [1, 5] was 420 nM and the “% Activation” value [2, 6] was 492.2%. The EC50 [2, 7] was 77.2 nM, the EC50 [3, 9] was 40 nM and the “% Activity at 1 μM (AUC**)” value [3, 8] was 245.9%.

For `CC(C)Oc1nn(C2CCCCC2)c2nc(C(=O)NS(C)(=O)=O)cc(-c3ccc(CN4CCN(C(C)C)CC4)cc3)c12` [Compound 634, 1-cyclohexyl-N-(methanesulfonyl)-3-[(propan-2-yl)oxy]-4-(4-{[4-(propan-2-yl)piperazin-1-yl]methyl}phenyl)-1H-pyrazolo[3,4-b]pyridine-6-carboxamide], the “% Activation” value [1, 4] was 227.46%, the EC50 [1, 5] was 200 nM and the “% Activation” value [2, 6] was 439.44%. For the same compound, the EC50 [2, 7] was 78.8 nM and the EC50 [3, 9] was 138 nM.

In the case of `CN(C)S(=O)(=O)NC(=O)c1cc(N2CCC(N3CCC(O)CC3)CC2)c2c(C3CCC3)nn(-c3ccc(F)cc3)c2n1` [Compound 605, 3-cyclobutyl-N-(dimethylsulfamoyl)-1-(4-fluorophenyl)-4-(4-hydroxy[1,4'-bipiperidin]-1'-yl)-1H-pyrazolo[3,4-b]pyridine-6-carboxamide], the “% Activation” value [1, 4] is reported as 207.5%, the EC50 [1, 5] is reported as 317 nM and the “% Activation” value [2, 6] is reported as 395.8%. For the same compound, the EC50 [2, 7] was 723 nM and the “% Activity at 1 μM (AUC**)” value [3, 8] was 726.6667%.

`O=C(NS(=O)(=O)C1CCOC1)c1cc(N2CCC(N3CCOCC3)CC2)c2c(C3CCC3)nn(-c3ccc(F)cc3)c2n1` (stereo not drawn) [Compound 429, 3-cyclobutyl-1-(4-fluorophenyl)-4-[4-(morpholin-4-yl)piperidin-1-yl]-N-(oxolane-3-sulfonyl)-1H-pyrazolo[3,4-b]pyridine-6-carboxamide] was tested, and the “% Activation” value [1, 4] was 252.1%, the EC50 [1, 5] was 378 nM and the “% Activation” value [2, 6] was 422.8%. The EC50 [2, 7] was 205 nM, the EC50 [3, 9] was 83.8 nM and the “% Activity at 1 μM (AUC**)” value [3, 8] was 180%.

For `CC(C1CCN(c2cc(C(=O)NS(C)(=O)=O)nc3c2c(C2CCC2)nn3-c2ccc(F)cc2)CC1)N1CCOCC1` (stereo not drawn) [Compound 445, 3-cyclobutyl-1-(4-fluorophenyl)-N-(methanesulfonyl)-4-{4-[1-(morpholin-4-yl)ethyl]piperidin-1-yl}-1H-pyrazolo[3,4-b]pyridine-6-carboxamide], the “% Activation” value [1, 4] was 393.1%, the EC50 [1, 5] was 111 nM and the “% Activation” value [2, 6] was 671.25%. For the same compound, the EC50 [2, 7] was 59.1 nM and the “% Activity at 1 μM (AUC**)” value [3, 8] was 406.6667%.

In the case of `CS(=O)(=O)NC(=O)c1cc(-c2ccc(N3CCC(C#N)CC3)nc2)c2c(C3CCC3)nn(-c3ccnc(N4CCOCC4)c3)c2n1` [Compound 201, 4-[6-(4-cyanopiperidin-1-yl)pyridin-3-yl]-3-cyclobutyl-N-(methanesulfonyl)-1-[2-(morpholin-4-yl)pyridin-4-yl]-1H-pyrazolo[3,4-b]pyridine-6-carboxamide], the “% Activation” value [1, 4] is reported as 200.8%, the EC50 [1, 5] is reported as 402 nM and the “% Activation” value [2, 6] is reported as 379.9%. The EC50 [2, 7] was 292 nM, the EC50 [3, 9] was less than 300 nM and the “% Activity at 1 μM (AUC**)” value [3, 8] was 250%.

With `COC1CCN(C2CCN(c3cc(C(=O)NS(=O)(=O)N4CCOCC4)nc4c3c(C3CCC3)nn4-c3ccc(F)cc3)CC2)CC1` [Compound 647, 3-cyclobutyl-1-(4-fluorophenyl)-4-(4-methoxy[1,4'-bipiperidin]-1'-yl)-N-(morpholine-4-sulfonyl)-1H-pyrazolo[3,4-b]pyridine-6-carboxamide] the “% Activation” value [1, 4] was 164.47%, the EC50 [1, 5] was 216 nM and the “% Activation” value [2, 6] was 337.07%. For the same compound, the EC50 [2, 7] was 112 nM, the EC50 [3, 9] was 151 nM and the “% Activity at 3 μM (AUC**)” value [3, 8] was 420.0246%.

In the case of `CC(C)Oc1nn(C2CCCCC2)c2nc(C(=O)NS(C)(=O)=O)cc(-c3ccc(CN4CC(N(C)C)C4)cc3)c12` [Compound 633, 1-cyclohexyl-4-(4-{[3-(dimethylamino)azetidin-1-yl]methyl}phenyl)-N-(methanesulfonyl)-3-[(propan-2-yl)oxy]-1H-pyrazolo[3,4-b]pyridine-6-carboxamide], the “% Activation” value [1, 4] is reported as 180.46%, the EC50 [1, 5] is reported as 345 nM and the “% Activation” value [2, 6] is reported as 400.44%. For the same compound, the EC50 [2, 7] was 207 nM and the EC50 [3, 9] was 204 nM.
